# Data from US11787812B2, “Substituted pyrazolo[4,3-d]pyrimidines and imidazo[5,1 -f][1,2,4]triazines as androgen receptor and phosphodiesterase dual inhibitors” (ILDONG PHARMACEUTICAL CO., LTD., priority 2020, dated 2023).
# Experiments:
# [1] = molecular target: human PDE-5A1 (Homo sapiens (Human), UniProt O76074); experiment: Human PDE-5A1 inhibition assay (fluorescence polarization, FAM-cGMP); assay type: biochemical; conditions: human PDE5A1, 100 nM FAM-cGMP, 60 minutes room temperature
# From the text: This example illustrates the in vitro inhibition of human PDE-5A1 by exemplary compounds of this disclosure (e.g., as described herein).
# Sildenafil citrate (Catalog no. LKT-S3313, Axxora, San Diego, CA), Vardenafil hydrochloride trihydrate (Catalog no. SML2103, Sigma-Aldrich, St. Louis, MO), PDE Assay Buffer (Catalog no. 60393, BPS bioscience, San Diego, CA), PDE Binding Agent (Catalog no. 60390, BPS bioscience, San Diego, CA) and PDE Binding Agent Diluent (cGMP, Catalog no. 60392, BPS bioscience, San Diego, CA) were used for assays. Test compounds were supplied by Ildong Pharmaceuticals Co., Ltd.
# The serial dilution of the compounds was first performed in 100% DMSO with the highest concentration at 1 mM and 0.1 mM. Each intermediate compound dilution (in 100% DMSO) will then get directly diluted 10× fold into assay buffer for 10% DMSO and 5 μL of the dilution was added to a 50 μL reaction so that the final concentration of DMSO is 1% in all reactions.
# The enzymatic reactions were conducted at room temperature for 60 minutes in a 50 μL mixture containing PDE assay buffer, 100 nM FAM-cGMP, a PDE enzyme (Table 2) and the test compounds.
# After enzymatic reaction, 100 μL of a binding solution (1:100 dilution of the binding agent with the binding agent diluent) was added to each reaction and the reaction was performed at room temperature for 60 minutes.
# Fluorescence intensity was measured at excitation of 485 nm and an emission of 528 nm using a Tecan Infinite M1000 microplate reader.
# PDE activity assays were performed in duplicate at each concentration. Fluorescence intensity is converted to fluorescence polarization using the Tecan Magellan6 software. The fluorescence polarization (FPt) in absence of the compound in each data set was defined as 100% activity. In the absence of PDE and the compound, the value fluorescent polarization (FPb) in each data set was defined as 0% activity. The percent activity in the presence of compound was calculated according to Equation 1:
# [formula] where FP=the fluorescence polarization in the presence of the compound.
# The values of % activity versus a series of compound concentrations were then plotted using non-linear regression analysis of Sigmoidal dose-response curve generated with Equation 2:
# [formula] where Y=percent activity, B=minimum percent activity, T=maximum percent activity, X=logarithm of compound, and Hill Slope=slope factor or Hill coefficient. The IC50 value was determined by the concentration causing a half-maximal percent activity. Results
# [2] = molecular target: Human androgen receptors (Homo sapiens (Human), UniProt P10275, T878A); experiment: Androgen receptor (AR) radioligand binding assay; conditions: receptors from human LNCaP cells, 0.5 nM [3H]Methyltrienolone, 20 hours at 4° C.; read-out: AR IC50
# Procedure: Methods employed in this study have been adapted from the following literature procedure.
# Human androgen receptors obtained from human LNCaP cells are used in modified HEPES buffer pH 7.4. […] Non-specific binding is estimated in the presence of 1 μM testosterone. […] (See, e.g., Traish, A. M et al., Binding of 7α, 17α-dimethyl-19-nortestosterone (Mibolerone) to androgen and progesterone receptors in human and animal tissues. Endocrinology. 118(4): 1327-1333, 1986).
# Compounds are screened at 10 μM.
# Where presented, IC50 values were determined by a non-linear, least squares regression analysis using MathIQ™ (ID Business Solutions Ltd., UK).
# [3] = molecular target: androgen receptor (AR) (Homo sapiens (Human), UniProt P10275); experiment: Androgen receptor (AR) reporter assay, antagonist screen activated by R1881; assay type: cell-based; conditions: AR-UAS-bla GripTite 293 cells, antagonist mode, R1881 at EC80
# Procedure: The protocols and results of this Example were carried out and obtained by Thermofisher Scientific.
# Test compounds were received at 1000× (or greater) of the desired starting concentration in 100% DMSO. If compounds were supplied at greater that 1000× concentration, an initial dilution is made in 100% DMSO to bring the compounds to 1000× concentration. The 1000× test compounds were serially diluted (10 point ½-log increments) in 100% DMSO.
# The Substrate Loading Solution consists of three Life Technologies reagents: Solution A (10 mM LiveBLAzer™-FRET B/G Substrate), Solution B and Solution C.
# Androgen Receptor (AR)—Antagonist Screen, Activated by R1881
# AR-UAS-bla GripTite™ 293 cells were thawed and resuspended in Assay Media (DMEM phenol red free, 2% CD-treated FBS, 0.1 mM NEAA, 1 mM Sodium Pyruvate, 100 U/mL/100 μg/mL Pen/Strep) to a concentration of 312,500 cells/mL. 4 μL of a 10× serial dilution of Cyproterone Acetate (control antagonist starting concentration, 3,160 nM) or compounds are added to appropriate wells of a Poly-D-Lysine assay plate. 32 μL of cell suspension was added to the wells and pre-incubated at 37° C./5% CO2 in a humidified incubator with compounds and control antagonist titration for 30 minutes. 4 μL of 10× control agonist R1881 at the pre-determined EC80 concentration was added to wells containing the control antagonist or compounds. The plate was incubated for 16-24 hours at 37° C./5% CO2 in a humidified incubator. 8 μL of 1 μM Substrate Loading Solution is added to each well and the plate was incubated for 2 hours at room temperature. The plate was read on a fluorescence plate reader (Tecan Safire^2).
# Sequence of Human androgen receptors (P10275 whole entry T878A): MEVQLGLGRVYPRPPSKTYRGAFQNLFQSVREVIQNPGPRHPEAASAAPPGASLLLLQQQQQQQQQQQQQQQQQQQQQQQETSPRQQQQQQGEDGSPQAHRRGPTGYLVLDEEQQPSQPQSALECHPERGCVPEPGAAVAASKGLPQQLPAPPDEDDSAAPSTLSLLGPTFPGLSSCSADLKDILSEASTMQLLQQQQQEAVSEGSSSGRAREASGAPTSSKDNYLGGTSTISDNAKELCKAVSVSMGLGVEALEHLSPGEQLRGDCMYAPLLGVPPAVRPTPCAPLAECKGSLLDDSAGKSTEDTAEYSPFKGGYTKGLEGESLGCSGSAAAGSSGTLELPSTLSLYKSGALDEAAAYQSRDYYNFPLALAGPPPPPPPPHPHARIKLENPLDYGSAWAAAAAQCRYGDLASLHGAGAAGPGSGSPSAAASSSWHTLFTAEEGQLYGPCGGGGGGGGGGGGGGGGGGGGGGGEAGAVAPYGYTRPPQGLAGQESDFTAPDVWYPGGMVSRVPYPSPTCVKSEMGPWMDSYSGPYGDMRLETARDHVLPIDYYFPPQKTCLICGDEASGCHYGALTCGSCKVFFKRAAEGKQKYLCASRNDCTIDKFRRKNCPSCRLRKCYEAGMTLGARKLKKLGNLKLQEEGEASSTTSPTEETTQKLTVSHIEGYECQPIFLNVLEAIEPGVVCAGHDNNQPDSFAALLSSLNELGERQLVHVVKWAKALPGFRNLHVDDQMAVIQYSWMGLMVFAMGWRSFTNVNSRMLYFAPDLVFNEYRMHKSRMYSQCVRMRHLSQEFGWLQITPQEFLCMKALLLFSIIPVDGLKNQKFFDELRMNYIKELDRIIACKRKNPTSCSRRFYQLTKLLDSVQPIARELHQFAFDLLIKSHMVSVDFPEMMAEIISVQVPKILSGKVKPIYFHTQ
# Sequence of androgen receptor (AR) (P10275 other isoform, or with tags, fused parts or gaps): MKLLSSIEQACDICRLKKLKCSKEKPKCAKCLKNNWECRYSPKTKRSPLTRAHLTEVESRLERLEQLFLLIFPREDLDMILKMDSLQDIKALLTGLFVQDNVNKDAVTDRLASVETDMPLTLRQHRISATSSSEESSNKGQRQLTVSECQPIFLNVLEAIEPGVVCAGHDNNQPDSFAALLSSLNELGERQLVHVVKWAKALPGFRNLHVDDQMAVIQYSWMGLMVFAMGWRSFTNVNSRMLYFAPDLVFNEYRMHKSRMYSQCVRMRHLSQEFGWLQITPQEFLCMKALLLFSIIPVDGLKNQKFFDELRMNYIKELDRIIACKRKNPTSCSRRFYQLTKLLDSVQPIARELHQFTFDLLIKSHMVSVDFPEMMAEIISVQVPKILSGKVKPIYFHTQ
Compound,IC50 [1] [nM],IC50 [2] [nM],IC50 [3] [nM]
"CCCc1nc(C)c2c(=O)[nH]c(-c3cc(N4C(=S)N(c5ccc(C#N)c(C(F)(F)F)c5)C(=O)C45CCCC5)ccc3OCC)nn12 [Compound 38, 4-(1-(4-ethoxy-3-(5-methyl-4-oxo-7-propyl-3,4-dihydroimidazo[5,1-f][1,2,4]triazin-2-yl)phenyl)-4-oxo-2-thioxo-1,3-diazaspiro[4.4]nonan-3-yl)-2-(trifluoromethyl)benzonitrile]",≤ 10,< 50,≤ 500
"CCCc1nc(C)c2c(=O)[nH]c(-c3cc(N4C(=S)N(c5ccc(C#N)c(C(F)(F)F)c5F)C(=O)C4(C)C)ccc3OCC)nn12 [Compound 47, 4-(3-(4-ethoxy-3-(5-methyl-4-oxo-7-propyl-3,4-dihydroimidazo[5,1-f][1,2,4]triazin-2-yl)phenyl)-4,4-dimethyl-5-oxo-2-thioxoimidazolidin-1-yl)-3-fluoro-2-(trifluoromethyl)benzonitrile]",≤ 10,< 50,≤ 500
"CCCc1nc(C)c2c(=O)[nH]c(-c3cc(N4C(=S)N(c5ccc(C#N)c(C(F)(F)F)c5F)C(=O)C45CCC5)ccc3OCC)nn12 [Compound 48, 4-(5-(4-ethoxy-3-(5-methyl-4-oxo-7-propyl-3,4-dihydroimidazo[5,1-f][1,2,4]triazin-2-yl)phenyl)-8-oxo-6-thioxo-5,7-diazaspiro[3.4]octan-7-yl)-3-fluoro-2-(trifluoromethyl)benzonitrile]",≤ 10,< 50,≤ 500
"CCCc1nc(C)c2c(=O)[nH]c(-c3cc(N4C(=S)N(c5ccc(C#N)c(C(F)(F)F)c5F)C(=O)C45CCOC5)ccc3OCC)nn12 (stereo not drawn) [Compound 49, 4-(1-(4-ethoxy-3-(5-methyl-4-oxo-7-propyl-3,4-dihydroimidazo[5,1-f][1,2,4]triazin-2-yl)phenyl)-4-oxo-2-thioxo-7-oxa-1,3-diazaspiro[4.4]nonan-3-yl)-3-fluoro-2-(trifluoromethyl)benzonitrile]",≤ 10,< 50,500 to 1000
"CCCc1nc(C)c2c(=O)[nH]c(-c3cc(N4C(=S)N(c5ccc(C#N)c(C(F)(F)F)c5F)C(=O)C45CCCC5)ccc3OCC)nn12 [Compound 50, 4-(1-(4-ethoxy-3-(5-methyl-4-oxo-7-propyl-3,4-dihydroimidazo[5,1-f][1,2,4]triazin-2-yl)phenyl)-4-oxo-2-thioxo-1,3-diazaspiro[4.4]nonan-3-yl)-3-fluoro-2-(trifluoromethyl)benzonitrile]",≤ 10,< 50,≤ 500
